Earlier results, collected in patent US10912471B2, “System and method for automatic perfusion measurement” (priority 2018, dated 2021).

Tests used:
[1] = system: plasma proteins; settings: becomes confined to the vascular system
[2] = administration not without risks, e.g. during pregnancy

binding to plasma proteins [1]: binds tightly to plasma proteins
Structure (SMILES): CC1(C)C(/C=C/C=C/C=C/C=C2\N(CCCCS(=O)(=O)O)c3ccc4ccccc4c3C2(C)C)=[N+](CCCCS(=O)(=O)[O-])c2ccc3ccccc3c21 [ICG, Indocyanine green]
toxicity classification [2]: low
